From ChEMBL document CHEMBL1201861, “Genomics of Drug Sensitity in Cancer screening data, Wellcome Trust Sanger Institute”

What was measured:
Assay in all cases: cells
[1] = test system: MPP-89; format: functional, cell-based, Homo sapiens; conditions: Homo sapiens, MPP-89;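 also: growth inhibition of human MPP-89 cells, read out with a cell viability assay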
Description: SANGER: Inhibition of human MPP-89 cell growth in a cell viability assay.

[2] = test system: NCI-H1355; format: functional, cell-based, Homo sapiens; conditions: Homo sapiens, NCI-H1355;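 also: growth inhibition of human NCI-H1355 cells, read out by a cell viability assay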
Description: SANGER: Inhibition of human NCI-H1355 cell growth in a cell viability assay.

[3] = test system: J-RT3-T3-5; format: functional, cell-based; conditions: Homo sapiens;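 also: cell viability assay measuring growth inhibition of human J-RT3-T3-5 cells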
Description: SANGER: Inhibition of human J-RT3-T3-5 cell growth in a cell viability assay.

[4] = test system: NOMO-1; format: functional, cell-based; conditions: Homo sapiens;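 also: growth inhibition of human NOMO-1 cells measured by a cell viability assay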
[5] = test system: TE-6; format: functional, cell-based, Homo sapiens; conditions: Homo sapiens, TE-6;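 also: growth inhibition of TE-6 cells, read out with a cell viability assay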
Description: SANGER: Inhibition of human TE-6 cell growth in a cell viability assay.

[6] = test system: MS-1; format: functional, cell-based; conditions: Homo sapiens;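 also: growth inhibition of MS-1 cells, read out by cell viability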
Description: SANGER: Inhibition of human MS-1 cell growth in a cell viability assay.

[7] = test system: MSTO-211H; format: functional, cell-based, Homo sapiens; conditions: Homo sapiens, MSTO-211H
Description: SANGER: Inhibition of human MSTO-211H cell growth in a cell viability assay.

[8] = test system: MHH-NB-11; format: functional, cell-based, Homo sapiens; conditions: Homo sapiens, MHH-NB-11;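 also: growth inhibition of human MHH-NB-11 cells, read out by a cell viability assay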
Description: SANGER: Inhibition of human MHH-NB-11 cell growth in a cell viability assay.

[9] = test system: MOLT-16; format: functional, cell-based; conditions: Homo sapiens;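 also: growth inhibition of human MOLT-16 cells, read out with a cell viability assay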
Description: SANGER: Inhibition of human MOLT-16 cell growth in a cell viability assay.

[10] = test system: HT; format: functional, cell-based; conditions: Homo sapiens
Description: SANGER: Inhibition of human HT cell growth in a cell viability assay.

[11] = test system: NCI-H1092; format: functional, cell-based; conditions: Homo sapiens;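 also: cell growth inhibition measured with a cell viability assay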
Description: SANGER: Inhibition of human NCI-H1092 cell growth in a cell viability assay.

[12] = test system: LXF-289 cell line; format: functional, cell-based, Homo sapiens; conditions: Homo sapiens, LXF-289
Description: SANGER: Inhibition of human LXF-289 cell growth in a cell viability assay.

[13] = test system: MZ2-MEL; format: functional, cell-based, Homo sapiens; conditions: Homo sapiens, MZ2-MEL;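 also: growth inhibition of MZ2-MEL cells read out with a cell viability assay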
Description: SANGER: Inhibition of human MZ2-MEL cell growth in a cell viability assay.

[14] = test system: HT-144; format: functional, cell-based, Homo sapiens; conditions: Homo sapiens, HT-144
Description: SANGER: Inhibition of human HT-144 cell growth in a cell viability assay.

[15] = test system: TGBC1TKB; format: functional, cell-based, Homo sapiens; conditions: Homo sapiens, TGBC1TKB;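 also: growth inhibition of TGBC1TKB cells, read out by a cell viability assay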
Description: SANGER: Inhibition of human TGBC1TKB cell growth in a cell viability assay.

[16] = test system: NCI-H1838; format: functional, cell-based, Homo sapiens; conditions: Homo sapiens, NCI-H1838;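 also: growth inhibition of NCI-H1838 cells, determined with a cell viability readout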
Description: SANGER: Inhibition of human NCI-H1838 cell growth in a cell viability assay.

[17] = test system: Calu-6; format: functional, cell-based, Homo sapiens; conditions: Homo sapiens, Calu-6;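 also: growth of human Calu-6 cells, read out by a cell viability assay, IC50 marking inhibition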
Description: SANGER: Inhibition of human Calu-6 cell growth in a cell viability assay.

[18] = test system: SK-UT-1; format: functional, cell-based, Homo sapiens; conditions: Homo sapiens, SK-UT-1;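 also: growth inhibition of SK-UT-1 cells, measured by a cell viability assay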
Description: SANGER: Inhibition of human SK-UT-1 cell growth in a cell viability assay.

[19] = test system: NKM-1; format: functional, cell-based; conditions: Homo sapiens;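 also: growth inhibition of NKM-1 cells, read out with a cell viability assay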
[20] = test system: TE-5; format: functional, cell-based, Homo sapiens; conditions: Homo sapiens, TE-5;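 also: inhibition of cell growth, read out by a cell viability assay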
Description: SANGER: Inhibition of human TE-5 cell growth in a cell viability assay.

[21] = test system: SF-539; format: functional, cell-based, Homo sapiens; conditions: Homo sapiens, SF-539;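 also: Read-out is a cell viability assay, with IC50 reflecting inhibition of cell growth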
Description: SANGER: Inhibition of human SF539 cell growth in a cell viability assay.

[22] = test system: A253 cell line; format: functional, cell-based, Homo sapiens; conditions: Homo sapiens, A253;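 also: growth inhibition of A253 cells, read out with a cell viability assay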
Description: SANGER: Inhibition of human A253 cell growth in a cell viability assay.

[23] = test system: RPMI-8866; format: functional, cell-based; conditions: Homo sapiens
Description: SANGER: Inhibition of human RPMI-8866 cell growth in a cell viability assay.

[24] = test system: SCH; format: functional, cell-based, Homo sapiens; conditions: Homo sapiens, SCH;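 also: growth inhibition of human SCH cells, read out in a cell viability assay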
Description: SANGER: Inhibition of human SCH cell growth in a cell viability assay.

[25] = test system: SW684; format: functional, cell-based, Homo sapiens; conditions: Homo sapiens, SW684;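 also: growth inhibition of human SW684 cells, measured by a cell viability assay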
Description: SANGER: Inhibition of human SW684 cell growth in a cell viability assay.

[26] = test system: SCC-15; format: functional, cell-based, Homo sapiens; conditions: Homo sapiens, SCC-15;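 also: growth inhibition of SCC-15 cells, read out with a cell viability assay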
Description: SANGER: Inhibition of human SCC-15 cell growth in a cell viability assay.

Structure (SMILES)	IC50 [1]	IC50 [2]	IC50 [3]	IC50 [4]	IC50 [5]	IC50 [6]	IC50 [7]	IC50 [8]	IC50 [9]	IC50 [10]	IC50 [11]	IC50 [12]	IC50 [13]	IC50 [14]	IC50 [15]	IC50 [16]	IC50 [17]	IC50 [18]	IC50 [19]	IC50 [20]	also measured
C=C1C(=O)O[C@@H]2C3O[C@]3(C)CC/C=C(\C)CC[C@@H]12 (stereo partly specified)	> 5000 nM	> 5000 nM	> 5000 nM	> 5000 nM	> 5000 nM	> 5000 nM	> 5000 nM	> 5000 nM	> 5000 nM	> 5000 nM	> 5000 nM	> 5000 nM	> 5000 nM	> 5000 nM	> 5000 nM	> 5000 nM	> 5000 nM	> 5000 nM	> 5000 nM	> 5000 nM	IC50 [21]: 2470 nM; IC50 [22]: > 5000 nM; IC50 [23]: > 5000 nM; IC50 [24]: > 5000 nM; IC50 [25]: > 5000 nM
CC1=C2C[C@H]3[C@@H](CC=C4C[C@@H](O)CC[C@@]43C)[C@@H]2CC[C@]12O[C@@H]1C[C@H](C)CN[C@H]1[C@H]2C [CYCLOPAMINE]	> 16000 nM	> 16000 nM	> 16000 nM	> 16000 nM	> 16000 nM	> 16000 nM	> 16000 nM	> 16000 nM	> 16000 nM	> 16000 nM	> 16000 nM	> 16000 nM	> 16000 nM	> 16000 nM	> 16000 nM	> 16000 nM	> 16000 nM	> 16000 nM	> 16000 nM	> 16000 nM	IC50 [26]: > 16000 nM; IC50 [21]: > 16000 nM; IC50 [22]: > 16000 nM; IC50 [23]: > 16000 nM; IC50 [24]: > 16000 nM; IC50 [25]: > 16000 nM
CS(=O)(=O)CCNCc1ccc(-c2ccc3ncnc(Nc4ccc(OCc5cccc(F)c5)c(Cl)c4)c3c2)o1 [LAPATINIB]	> 2000 nM	> 2000 nM	> 2000 nM	> 2000 nM	1550 nM	> 2000 nM	> 2000 nM	> 2000 nM	> 2000 nM	> 2000 nM	> 2000 nM	> 2000 nM	> 2000 nM	> 2000 nM	> 2000 nM	> 2000 nM	> 2000 nM	> 2000 nM	> 2000 nM	> 2000 nM	IC50 [26]: > 2000 nM; IC50 [21]: > 2000 nM; IC50 [22]: 1970 nM; IC50 [23]: > 2000 nM; IC50 [24]: > 2000 nM; IC50 [25]: > 2000 nM
CCc1nc(N)nc(N)c1-c1ccc(Cl)cc1 [PYRIMETHAMINE]	> 20000 nM	> 20000 nM	2220 nM	> 20000 nM	> 20000 nM	> 20000 nM	7640 nM	13700 nM	15100 nM	> 20000 nM	> 20000 nM	> 20000 nM	> 20000 nM	6800 nM	> 20000 nM	> 20000 nM	> 20000 nM	> 20000 nM	> 20000 nM	> 20000 nM	IC50 [21]: 2550 nM; IC50 [22]: > 20000 nM; IC50 [23]: 9700 nM; IC50 [24]: 16900 nM; IC50 [25]: > 20000 nM
O=C(/C=C/c1ccccc1)NC(NC(=S)Nc1cccc2cccnc12)C(Cl)(Cl)Cl (stereo unspecified) [SALUBRINAL]	> 16000 nM	> 16000 nM	14700 nM	> 16000 nM	> 16000 nM	> 16000 nM	> 16000 nM	> 16000 nM	14000 nM	8940 nM	> 16000 nM	11200 nM	> 16000 nM	> 16000 nM	> 16000 nM	> 16000 nM	> 16000 nM	> 16000 nM	10600 nM	> 16000 nM	IC50 [26]: > 16000 nM; IC50 [21]: > 16000 nM; IC50 [22]: > 16000 nM; IC50 [23]: > 16000 nM; IC50 [24]: > 16000 nM; IC50 [25]: > 16000 nM
CN1CCN(CCOc2cc(OC3CCOCC3)c3c(Nc4c(Cl)ccc5c4OCO5)ncnc3c2)CC1 [SARACATINIB]	> 2000 nM	> 2000 nM	> 2000 nM	> 2000 nM	> 2000 nM	> 2000 nM	> 2000 nM	> 2000 nM	> 2000 nM	> 2000 nM	> 2000 nM	> 2000 nM	> 2000 nM	> 2000 nM	> 2000 nM	> 2000 nM	> 2000 nM	> 2000 nM	> 2000 nM	> 2000 nM	IC50 [26]: > 2000 nM; IC50 [21]: > 2000 nM; IC50 [22]: > 2000 nM; IC50 [23]: > 2000 nM; IC50 [25]: > 2000 nM
CO[C@H]1C[C@@H]2CC[C@@H](C)[C@@](O)(O2)C(=O)C(=O)N2CCCC[C@H]2C(=O)O[C@H]([C@H](C)C[C@@H]2CC[C@@H](O)[C@H](OC)C2)CC(=O)[C@H](C)/C=C(\C)[C@@H](O)[C@@H](OC)C(=O)[C@H](C)C[C@H](C)/C=C/C=C/C=C/1C [SIROLIMUS]	> 100 nM	1.01 nM	6.46 nM	> 100 nM	2.77 nM	> 100 nM	> 100 nM	> 100 nM	> 100 nM	17.6 nM	> 100 nM	> 100 nM	> 100 nM	> 100 nM	2.69 nM	> 100 nM	> 100 nM	16.8 nM	> 100 nM	> 100 nM	IC50 [26]: > 100 nM; IC50 [21]: < 0.391 nM; IC50 [22]: > 100 nM; IC50 [23]: > 100 nM; IC50 [25]: > 100 nM
CNC(=O)c1cc(Oc2ccc(NC(=O)Nc3ccc(Cl)c(C(F)(F)F)c3)cc2)ccn1 [SORAFENIB]	> 4000 nM	> 4000 nM	> 4000 nM	> 4000 nM	> 4000 nM	> 4000 nM	> 4000 nM	> 4000 nM	> 4000 nM	> 4000 nM	> 4000 nM	> 4000 nM	> 4000 nM	> 4000 nM	> 4000 nM	> 4000 nM	> 4000 nM	> 4000 nM	74.2 nM	3130 nM	IC50 [26]: > 4000 nM; IC50 [21]: > 4000 nM; IC50 [22]: > 4000 nM; IC50 [23]: > 4000 nM; IC50 [24]: > 4000 nM; IC50 [25]: > 4000 nM
CCC(=O)N1CCN(c2ccc(-n3c(=O)ccc4cnc5ccc(-c6cnc7ccccc7c6)cc5c43)cc2C(F)(F)F)CC1 [TORIN1]	181 nM	16.5 nM	91.5 nM	400 nM	681 nM	402 nM	> 1200 nM	> 1200 nM	16.2 nM	80 nM	> 1200 nM	28.7 nM	23.4 nM	14.5 nM	3.79 nM	> 1200 nM	165 nM	22.6 nM	987 nM	38.5 nM	IC50 [26]: > 1200 nM; IC50 [21]: 984 nM; IC50 [22]: 989 nM; IC50 [23]: > 1200 nM; IC50 [24]: 140 nM; IC50 [25]: > 1200 nM
Cc1cc(Nc2cc(N3CCN(C)CC3)nc(Sc3ccc(NC(=O)C4CC4)cc3)n2)n[nH]1 [TOZASERTIB]	> 2000 nM	> 2000 nM	> 2000 nM	> 2000 nM	> 2000 nM	> 2000 nM	> 2000 nM	> 2000 nM	1350 nM	> 2000 nM	> 2000 nM	404 nM	> 2000 nM	638 nM	> 2000 nM	> 2000 nM	> 2000 nM	160 nM	1030 nM	> 2000 nM	IC50 [26]: > 2000 nM; IC50 [21]: > 2000 nM; IC50 [22]: > 2000 nM; IC50 [23]: > 2000 nM; IC50 [24]: > 2000 nM; IC50 [25]: > 2000 nM
